The experiment concerns the target TBK1 (Homo sapiens (Human), UniProt Q9UHD2). The experiment can be described thus: TBK1 low ATP kinase assay (in vitro assay 1). In kind it is biochemical. Particulars: in vitro assay 1, read-out: TBK1 low ATP kinase assay IC50.

pIC50: −log10 of the molar value.

Here are results for 26 compounds from patent publication US10894784B2, “Heteroarylbenzimidazole compounds” (BAYER PHARMA AKTIENGESELLSCHAFT, priority 2015, dated 2021).

Chain of TBK1 (Q9UHD2 whole entry): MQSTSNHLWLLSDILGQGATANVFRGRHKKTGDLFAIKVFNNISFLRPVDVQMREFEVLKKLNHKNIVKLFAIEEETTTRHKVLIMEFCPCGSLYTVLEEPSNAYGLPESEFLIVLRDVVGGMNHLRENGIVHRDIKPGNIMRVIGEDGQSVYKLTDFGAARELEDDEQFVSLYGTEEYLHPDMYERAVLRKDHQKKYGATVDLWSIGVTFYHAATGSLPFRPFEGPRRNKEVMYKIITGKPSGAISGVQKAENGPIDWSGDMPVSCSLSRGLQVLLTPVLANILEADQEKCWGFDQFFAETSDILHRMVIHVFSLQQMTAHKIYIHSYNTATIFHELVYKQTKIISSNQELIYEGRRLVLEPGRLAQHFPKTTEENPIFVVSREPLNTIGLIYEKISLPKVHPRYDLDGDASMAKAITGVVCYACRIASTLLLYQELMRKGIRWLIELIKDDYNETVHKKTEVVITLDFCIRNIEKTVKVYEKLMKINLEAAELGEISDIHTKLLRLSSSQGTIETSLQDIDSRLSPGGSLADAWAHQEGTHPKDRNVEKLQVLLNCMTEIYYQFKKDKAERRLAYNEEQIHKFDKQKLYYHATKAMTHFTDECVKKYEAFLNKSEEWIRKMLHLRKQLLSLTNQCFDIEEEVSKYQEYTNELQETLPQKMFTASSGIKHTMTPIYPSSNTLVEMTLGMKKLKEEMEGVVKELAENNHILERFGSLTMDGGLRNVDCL

Broadly, the pIC50 is −log10 of the IC50, conventionally taken in molar units. Turning to `Cc1noc(-c2ccc3nc(Nc4cc(CN5CCN(c6ccc(C#N)cc6)CC5)ccn4)[nH]c3c2)n1` [Example 101.18, 4-{4-[(2-{[6-(3-methyl-1,2,4-oxadiazol-5-yl)-1H-benzimidazol-2-yl]amino}pyridin-4-yl)methyl]piperazin-1-yl}benzonitrile], the negative-log IC50 (pIC50) is 5.82. In the case of `CC(C)(C)OC(=O)N1CCN(Cc2ccnc(Nc3nc4ccc(-c5ncccn5)cc4[nH]3)c2)CC1` [Example 180.01, tert-butyl 4-[(2-{[6-(pyrimidin-2-yl)-1H-benzimidazol-2-yl]amino}pyridin-4-yl)methyl]piperazine-1-carboxylate] it was 6.24; in that of “3,3,3-trifluoro-1-{4-[(1R or 1S)-1-{2-[(6-{1-[(1-methylcyclopropyl)methyl]-1H-pyrazol-4-yl}-1H-benzimidazol-2-yl)amino]pyridin-4-yl}ethyl]piperazin-1-yl}propan-1-one [Example 68.02]”, 8.82; in that of `CC(c1ccnc(Nc2nc3ccc(-c4cc(N5CC(C(F)(F)F)C5)ncn4)cc3[nH]2)c1)N1CCN(C(=O)OC(C)(C)C)CC1` (single isomer, unassigned) [Example 164.01, tert-butyl 4-[(1R or 1S)-1-{2-[(6-{6-[3-(trifluoromethyl)azetidin-1-yl]pyrimidin-4-yl}-1H-benzimidazol-2-yl)amino]pyridin-4-yl}ethyl]piperazine-1-carboxylate], 8.26. Consider `Cc1ncc(-c2ccc3nc(Nc4cc(CN5CCN(C(=O)CC(F)(F)F)CC5)ccn4)[nH]c3c2)cn1` [Example 45.03.01, 3,3,3-trifluoro-1-{4-[(2-{[6-(2-methylpyrimidin-5-yl)-1H-benzimidazol-2-yl]amino}pyridin-4-yl)methyl]piperazin-1-yl}propan-1-one], for which the pIC50 was 5.42. For `CC(C)Oc1cnccc1-c1ccc2nc(Nc3cc(CN4CCN(C(=O)CC(F)(F)F)CC4)ccn3)[nH]c2c1` [Example 06.01, 3,3,3-trifluoro-1-(4-{[2-({6-[3-(propan-2-yloxy)pyridin-4-yl]-1H-benzimidazol-2-yl}amino)pyridin-4-yl]methyl}piperazin-1-yl)propan-1-one], the negative-log IC50 (pIC50) was 8.37. In the case of `COc1c(-c2ccc3nc(Nc4cc(C(C)N5CCN(C(=O)OC(C)(C)C)CC5)ccn4)[nH]c3c2)ncnc1N1CCC1` (single isomer, unassigned) [Example 111.01, tert-butyl 4-{(1R or 1S)-1-[2-({6-[6-(azetidin-1-yl)-5-methoxypyrimidin-4-yl]-1H-benzimidazol-2-yl}amino)pyridin-4-yl]ethyl}piperazine-1-carboxylate] it was 8.59; in that of `Cc1ncc(-c2ccc3nc(Nc4cc(CN5CCN(C(=O)C6CC6)CC5)ccn4)[nH]c3c2)cn1` [Example 45.03.02, cyclopropyl{4-[(2-{[6-(2-methylpyrimidin-5-yl)-1H-benzimidazol-2-yl]amino}pyridin-4-yl)methyl]piperazin-1-yl}methanone], 5.88; in that of `COc1c(NCC2CC2)ncnc1-c1ccc2nc(Nc3cc(CN4CCN(C(=O)CC(F)(F)F)CC4)ccn3)[nH]c2c1` [Example 109.01.02, 1-[4-({2-[(6-{6-[(cyclopropylmethyl)amino]-5-methoxypyrimidin-4-yl}-1H-benzimidazol-2-yl)amino]pyridin-4-yl}methyl)piperazin-1-yl]-3,3,3-trifluoropropan-1-one], 8.27. Turning to `CC(c1ccnc(Nc2nc3ccc(-c4cc(C(F)(F)F)ncn4)c(F)c3[nH]2)c1)N1CCN(C(=O)C2(C(F)(F)F)CC2)CC1` (single isomer, unassigned) [Example 173.04, (4-{(1R or 1S)-1-[2-({7-fluoro-6-[6-(trifluoromethyl)pyrimidin-4-yl]-1H-benzimidazol-2-yl}amino)pyridin-4-yl]ethyl}piperazin-1-yl)[1-(trifluoromethyl)cyclopropyl]methanone], the negative-log IC50 (pIC50) was 6.83. With `Cc1noc(-c2ccc3nc(Nc4cc(CN5CCN(c6ccccc6)CC5)ccn4)[nH]c3c2)n1` [Example 101.04, 6-(3-methyl-1,2,4-oxadiazol-5-yl)-N-{4-[(4-phenylpiperazin-1-yl)methyl]pyridin-2-yl}-1H-benzimidazol-2-amine], the pIC50 was 5.52. In the case of `Nc1cc(-c2ccc3nc(Nc4cc(CN5CCN(C(=O)CC(F)(F)F)CC5)ccn4)[nH]c3c2)ccn1` [Example 138.02, 1-{4-[(2-{[6-(2-aminopyridin-4-yl)-1H-benzimidazol-2-yl]amino}pyridin-4-yl)methyl]piperazin-1-yl}-3,3,3-trifluoropropan-1-one] it was 8.39; in that of `O=C(C1CC1)N1CCN(Cc2ccnc(Nc3nc4ccc(-c5cnn(CC6CCC6)c5)cc4[nH]3)c2)CC1` [Example 59.02.02, (4-{[2-({6-[1-(cyclobutylmethyl)-1H-pyrazol-4-yl]-1H-benzimidazol-2-yl}amino)pyridin-4-yl]methyl}piperazin-1-yl)(cyclopropyl)methanone], 8.17.

For the compound `CCN(C)c1cc(-c2ccc3nc(Nc4cc(CN5CCN(C(=O)OC(C)(C)C)CC5)ccn4)[nH]c3c2)ncn1` [Example 148.01, tert-butyl 4-({2-[(6-{6-[ethyl(methyl)amino]pyrimidin-4-yl}-1H-benzimidazol-2-yl)amino]pyridin-4-yl}methyl)piperazine-1-carboxylate], the pIC50 was 7.60. To `CC(c1ccnc(Nc2nc3ccc(-c4cnn(CC5CC5)c4)cc3[nH]2)c1)N1CCN(C(=O)C2CC2)CC1` (single isomer, unassigned) [Example 39.02.03, cyclopropyl(4-{(1R or 1S)-1-[2-({6-[1-(cyclopropylmethyl)-1H-pyrazol-4-yl]-1H-benzimidazol-2-yl}amino)pyridin-4-yl]ethyl}piperazin-1-yl)methanone] belongs 8.78; to `COc1ccncc1-c1ccc2nc(Nc3cc(CN4CCN(C(=O)CC5CC5)CC4)ccn3)[nH]c2c1` [Example 14.02, 2-cyclopropyl-1-{4-[(2-{[6-(4-methoxypyridin-3-yl)-1H-benzimidazol-2-yl]amino}pyridin-4-yl)methyl]piperazin-1-yl}ethanone], 6.55. In the case of `COc1c(-c2ccc3nc(Nc4cc(CN5CCN(C(=O)CC(F)(F)F)CC5)ccn4)[nH]c3c2)ncnc1N(C)CC1CC1` [Example 110.04, 1-[4-({2-[(6-{6-[(cyclopropylmethyl)(methyl)amino]-5-methoxypyrimidin-4-yl}-1H-benzimidazol-2-yl)amino]pyridin-4-yl}methyl)piperazin-1-yl]-3,3,3-trifluoropropan-1-one], the pIC50 is 7.21.

As for `O=C(CC(F)(F)F)N1CCN(Cc2ccnc(Nc3nc4ccc(-c5ccnc(OCC6CC6)n5)cc4[nH]3)c2)CC1` [Example 62.01.03, 1-(4-{[2-({6-[2-(cyclopropylmethoxy)pyrimidin-4-yl]-1H-benzimidazol-2-yl}amino)pyridin-4-yl]methyl}piperazin-1-yl)-3,3,3-trifluoropropan-1-one], the pIC50 is 8.47. In the case of `CCOc1nccc(-c2ccc3nc(Nc4cc(C(C)N5CCN(C(=O)CC(F)(F)F)CC5)ccn4)[nH]c3c2)n1` (racemic) [Example 26.02.01, (rac)-1-{4-[1-(2-{[6-(2-ethoxypyrimidin-4-yl)-1H-benzimidazol-2-yl]amino}pyridin-4-yl)ethyl]piperazin-1-yl}-3,3,3-trifluoropropan-1-one] it was 8.33; in that of `CN(c1cc(-c2ccc3nc(Nc4cc(CN5CCN(C(=O)OC(C)(C)C)CC5)ccn4)[nH]c3c2)ncn1)C1CCC1` [Example 156.01, tert-butyl 4-({2-[(6-{6-[cyclobutyl(methyl)amino]pyrimidin-4-yl}-1H-benzimidazol-2-yl)amino]pyridin-4-yl}methyl)piperazine-1-carboxylate], 7.42; in that of `CC(c1ccnc(Nc2nc3ccc(-c4cnn(CC5CC5(C)C)c4)cc3[nH]2)c1)N1CCN(C(=O)C2CC2)CC1` (single isomer, unassigned) [Example 67.03, cyclopropyl{4-[(1R or 1S)-1-(2-{[6-(1-{[(1RS)-2,2-dimethylcyclopropyl]methyl}-1H-pyrazol-4-yl)-1H-benzimidazol-2-yl]amino}pyridin-4-yl)ethyl]piperazin-1-yl}methanone], 8.70. In the case of `COc1c(NC2CC2)ncnc1-c1ccc2nc(Nc3cc(CN4CCN(C(=O)C5CC5)CC4)ccn3)[nH]c2c1` [Example 108.03, cyclopropyl(4-{[2-({6-[6-(cyclopropylamino)-5-methoxypyrimidin-4-yl]-1H-benzimidazol-2-yl}amino)pyridin-4-yl]methyl}piperazin-1-yl)methanone] it was 8.05; in that of `Cc1noc(-c2ccc3nc(Nc4cc(CN5CCN(C(=O)c6ccccc6)CC5)ccn4)[nH]c3c2)n1` [Example 101.10, {4-[(2-{[6-(3-methyl-1,2,4-oxadiazol-5-yl)-1H-benzimidazol-2-yl]amino}pyridin-4-yl)methyl]piperazin-1-yl}(phenyl)methanone], 6.74.

`COc1c(Cl)ncnc1-c1ccc2nc(Nc3cc(CN4CCN(C(=O)CC(F)(F)F)CC4)ccn3)[nH]c2c1` [Example 60.01, 1-{4-[(2-{[6-(6-chloro-5-methoxypyrimidin-4-yl)-1H-benzimidazol-2-yl]amino}pyridin-4-yl)methyl]piperazin-1-yl}-3,3,3-trifluoropropan-1-one]: the pIC50 was 7.37. In the case of `CC(c1ccnc(Nc2nc3ccc(-c4cc(N5CC(C(F)(F)F)C5)ncn4)cc3[nH]2)c1)N1CCN(C(=O)CC(F)(F)F)CC1` (single isomer, unassigned) [Example 164.02, 3,3,3-trifluoro-1-{4-[(1R or 1S)-1-{2-[(6-{6-[3-(trifluoromethyl)azetidin-1-yl]pyrimidin-4-yl}-1H-benzimidazol-2-yl)amino]pyridin-4-yl}ethyl]piperazin-1-yl}propan-1-one], the pIC50 was 9.03. To `O=C(CC(F)(F)F)N1CCN(Cc2ccnc(Nc3nc4ccc(-c5nnc(CC6CCC6)o5)cc4[nH]3)c2)CC1` [Example 126.02, 1-(4-{[2-({6-[5-(cyclobutylmethyl)-1,3,4-oxadiazol-2-yl]-1H-benzimidazol-2-yl}amino)pyridin-4-yl]methyl}piperazin-1-yl)-3,3,3-trifluoropropan-1-one] belongs 8.41.
